{
  "source": "patent US10414759B2",
  "about": "“Phenylthiazoles and uses thereof” (Purdue Research Foundation, priority 2017, dated 2019)",
  "key": {"[1]": {"test_system": "human keratinocytes (HaCaT)", "test": "In vitro cytotoxicity against HaCaT (MTS)", "format": "cell-based", "conditions": "2 h incubation", "procedure": "Compound 17 was assayed at concentrations of 8, 16, 32, 64, 128, and 256 μg/mL against an immortal keratinocyte cell line (HaCaT) in order to determine the potential toxic effect against mammalian cells in vitro. Cells were cultured in Dulbeco's modified Eagle's medium (Sigma-Aldrich, St. Louis, Mo., USA) with 10% fetal bovine serum (USA Scientific, Inc.) at 37° C. with 5% CO2. Controls received DMSO alone at a concentration equal to that in drug-treated cell samples. The cells were incubated with the compounds in a 96-well plate at 37° C. and 5.0% CO2 for 2 h prior to addition of the assay reagent MTS 3-(4,5-dimethylthiazol-2-yl)-5-(3-carboxymethoxyphenyl)-2-(4-sulfophenyl)-2H-tetrazolium) (Promega, Madison, Wis., USA). Corrected absorbance readings (actual absorbance readings for each treatment […]) were taken using a kinetic ELISA microplate reader (Molecular Devices, Sunnyvale, Calif., USA). The quantity of viable cells after treatment with each compound is expressed as a percentage of the control, DMSO."}, "[2]": {"test_system": "MRSA (2658 RCMB)", "test": "MIC against MRSA (2658 RCMB), broth dilution", "format": "cell-based, Staphylococcus aureus", "how_it_was_run": "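Broth dilution in cation-adjusted Mueller-Hinton broth with an inoculum of about 5×10^5 CFU/mL (from a 0.5 McFarland suspension), using triplicate serial dilutions. MIC was the lowest concentration with no visible growth by visual inspection, reported as the mean of triplicates.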"}, "[3]": {"test": "Metabolic stability in human liver microsomes", "format": "in vitro ADME", "conditions": "pH 7.4, human liver microsomes", "procedure": "The tested compounds were incubated in duplicate with human liver microsomes at 37° C. The reaction contained microsomal protein in 100 mM potassium phosphate, 2 mM NADPH, 3 mM MgCl2, pH 7.4. A control was run for each test agent omitting NADPH to detect NADPH-free degradation. At 0, 10, 20, 40, and 60 minutes, an aliquot was removed from each experimental and control reaction and mixed with an equal volume of ice-cold Stop Solution (methanol containing haloperidol, diclofenac, or other internal standard). Stopped reactions are incubated at least ten minutes at −20° C., and an additional volume of water was added. The samples were centrifuged to remove precipitated protein, and the supernatants were analyzed by LC/MS/MS to quantitate the remaining parent. Data are converted to % remaining by dividing by the time zero concentration value. Data are fit to a first-order decay model to determine half-life. Intrinsic clearance is calculated from the half-life and the protein concentrations: CLint=ln(2)/(T1/2 [microsomal protein])."}, "[4]": {"test_system": "VRSA10", "test": "MIC/MBC clinical isolate panel (Table 3)", "format": "cell-based, S. aureus", "conditions": "Staphylococcus aureus, Table 3, VRSA10", "procedure": "MRSA clinical isolates, and vancomycin-resistant Staphylococcus aureus (VRSA) strain were obtained through the Network of Antimicrobial Resistance in Staphylococcus aureus (NARSA) program. In addition, vancomycin-resistant Enterococcus faecium (VRE) strain was obtained from the ATCC. Bacteria were cultured in cation-adjusted Mueller Hinton broth in a 96-well plate. Compounds, using triplicate samples, were added to the plate and serially diluted. […] Plates were visually inspected and the MIC was categorized as the concentration at which no visible growth of bacteria was observed. The average of triplicate MIC determinations is reported.\nThe minimum inhibitory concentration (MIC) of tested compounds and control antibiotics were determined using the broth microdilution method in accordance with the recommendations contained in the Clinical and Laboratory Standards Institute guidelines, against methicillin-sensitive (ATCC 6538 and NRS107), methicillin-resistant (MRSA), and vancomycin-resistant (VRSA) Staphylococcus aureus, Staphylococcus epidermidis, Enterococcus faecalis, E. faecium, Listeria monocytogenes, and Streptococcus pneumoniae clinical isolates. A bacterial solution equivalent to 0.5 McFarland standard was prepared and diluted in cation-adjusted Mueller-Hinton broth (CAMHB) to achieve a bacterial concentration of about 5×10^5 CFU/mL and seeded in 96-well plates. Enterococcus faecium was diluted in brain heart infusion broth. Enterococcus faecalis, Streptococcus pneumonia and Listeria monocytogenes were diluted in tryptone soya broth (TSB). Compounds and control drugs were added in the first row of 96-well plates and serially diluted (to achieve a concentration gradient ranging from 128 to 1 μg/mL). Plates were then incubated aerobically at 37° C. for at least 18 hours. The minimum bactericidal concentration (MBC) of the active compounds was tested by plating 5 μL from wells with no growth onto Tryptic soy agar (TSA) plates."}, "[5]": {"test": "Plasma pharmacokinetics after single oral dose in rats", "format": "in vivo, Sprague-Dawley (SD) rats", "procedure": "This assay has been conducted at a credited bioequivalence center (http://www.grc-me.com/pk_pd.html). Pharmacokinetic studies were performed in male naïve Sprague-Dawley (SD) rats, (three animals) following Institutional Animal Care and Use Committee guidelines. Oral dosing was administered by gavage in a vehicle containing 5% ethanol, 45% PEG 400, and 50% water. Blood samples were collected over a 24 h period post dose into Vacutainer tubes containing EDTA-K2. Plasma was isolated, and the concentration of compound 17 in plasma was determined with LC/MS/MS after protein precipitation with acetonitrile.\nNon-compartmental pharmacokinetic analysis was performed on plasma concentration data to calculate pharmacokinetic parameters using Kinetica® 2000 (release 4.4.1)."}, "[6]": {"test_system": "MRSA (USA300)", "test": "Time-kill assay", "format": "cell-based, Staphylococcus aureus", "conditions": "MRSA US300, 3.0×MIC", "procedure": "Aliquots (100 μL) were taken from each sample after 2, 4, 6, 8, 10, 12, and 24 hours, serially diluted in phosphate-buffered saline, and transferred to Trypticase soy agar (TSA) (Becton, Dickinson and Company, Sparks, Md., USA) plates. Plates were incubated at 37° C. for at least 16 hours before counting viable CFU/mL to determine the time required to reduce the bacterial cell count by 3-log10."}, "[7]": {"test_system": "NRS382 (MRSA USA100)", "test": "MIC/MBC clinical isolate panel (Table 3)", "format": "cell-based, S. aureus", "conditions": "Staphylococcus aureus, Table 3, NRS382 (MRSA USA100)", "procedure": "Bacteria were cultured in cation-adjusted Mueller Hinton broth in a 96-well plate. Compounds, using triplicate samples, were added to the plate and serially diluted. […] Plates were visually inspected and the MIC was categorized as the concentration at which no visible growth of bacteria was observed. The average of triplicate MIC determinations is reported.\nA bacterial solution equivalent to 0.5 McFarland standard was prepared and diluted in cation-adjusted Mueller-Hinton broth (CAMHB) to achieve a bacterial concentration of about 5×10^5 CFU/mL and seeded in 96-well plates. Enterococcus faecium was diluted in brain heart infusion broth. Enterococcus faecalis, Streptococcus pneumonia and Listeria monocytogenes were diluted in tryptone soya broth (TSB)."}, "[8]": {"conditions": "Table 6, single oral dose (30 mg/Kg) to rats"}, "[9]": {"conditions": "male, Sprague-Dawley, rat, plasma, Table 6, single oral dose (30 mg/Kg) to rats"}},
  "note": "Like-named read-outs stand apart in the source and are kept apart here.",
  "data": [
    {"smiles": "CCCCc1ccc(-c2nc(C)c(-c3ccnc(NN)n3)s2)cc1", "note": "[Compound 17, 2-(4-Butylphenyl)-5-(2-hydrazinopyrimidin-4-yl)-4-methylthiazole]", "values": [
      {"measurement": "nontoxic up to a concentration of", "setting": "[1]", "result": 64, "unit": "µg/mL"},
      {"measurement": "improvement in MIC value compared with lead compound 1", "setting": "[2]; MRSA (2658 RCMB)", "result": 12, "unit": "fold"},
      {"measurement": "MIC", "setting": "[2]; Staphylococcus aureus, Table 1, MRSA (2658 RCMB), read-out: MIC ± SD", "result": 0.4, "unit": "µg/mL"},
      {"measurement": "antibacterial (anti-MRSA) activity, in words", "setting": "[2]; Table 1", "result": "more potent than vancomycin"},
      {"measurement": "MIC ± SD", "setting": "[2]; Table 1, MRSA (2658 RCMB)", "result": "0.40 ± 0.0", "unit": "µg/mL"},
      {"measurement": "microsomal CLint", "setting": "[3]; NADPH omitted, read-out: NADPH-free Clint", "result": 0.5, "unit": "µL/min/mg"},
      {"measurement": "half-life", "setting": "[3]; NADPH omitted, read-out: NADPH-free t1/2", "result": "> 1", "unit": "h"},
      {"measurement": "microsomal CLint", "setting": "[3]; with NADPH, read-out: NADPH-dependent CLint", "result": "3 to 7.5", "unit": "µL/min/mg"},
      {"measurement": "half-life", "setting": "[3]; with NADPH, read-out: NADPH-dependent t1/2", "result": 5.13, "unit": "h"},
      {"measurement": "MBC", "setting": "[4]; read-out: MBC", "result": 2, "unit": "µg/mL"},
      {"measurement": "MIC", "setting": "[4]; read-out: MIC", "result": 1, "unit": "µg/mL"},
      {"measurement": "thalf", "setting": "[5]; [8]", "result": 8.24, "unit": "h"},
      {"measurement": "λz", "setting": "[5]; [8]", "result": 0.19, "unit": "h⁻¹"},
      {"measurement": "MRT", "setting": "[5]; male, Sprague-Dawley, rat, plasma, po, text b112, SD rats, 50 mg/Kg orally, read-out: in vivo mean residence time (MRT)", "result": "~8", "unit": "h"},
      {"measurement": "AUC", "setting": "[5]; [9]", "result": 100000, "unit": "ng·h/mL"},
      {"measurement": "AUC(0-t)", "setting": "[5]; [9]", "result": 83200, "unit": "ng·h/mL"},
      {"measurement": "Tmax", "setting": "[5]; [9]", "result": 4.67, "unit": "h"},
      {"measurement": "MRT", "setting": "[5]; male, Sprague-Dawley, rat, plasma, Table 6, single oral dose (30 mg/Kg) to rats, read-out: MRT (mean residence time)", "result": 7.74, "unit": "h"},
      {"measurement": "Cmax", "setting": "[5]; male, Sprague-Dawley, rat, po, text b112, SD rats, 50 mg/Kg orally, plasma", "result": 9300, "unit": "ng/mL"},
      {"measurement": "Cmax", "setting": "[5]; male, Sprague-Dawley, rat, Table 6, single oral dose (30 mg/Kg) to rats, plasma", "result": 9330, "unit": "ng/mL"},
      {"measurement": "time required to reduce the MRSA inoculum to zero colony forming units", "setting": "[6]", "result": "≤ 2", "unit": "h"},
      {"measurement": "MBC", "setting": "[7]", "result": 4, "unit": "µg/mL"},
      {"measurement": "MIC", "setting": "[7]; read-out: MIC", "result": 2, "unit": "µg/mL"}
    ]}
  ]
}
